Measurements from PMC5785531, “Pharmacokinetic parameters explain the therapeutic activity of antimicrobial agents in a silkworm infection model” (Scientific Reports, 2018).

Experiment: Metabolism in pooled human liver S9 fractions
Format: in vitro ADME
Conditions: 40 µg/ml compound; pooled human liver S9, NADPH, 37 °C; 10, 20, 30 min; HPLC
Procedure: Metabolism of the compounds was determined according to Yang et al.[38] with slight modifications. Briefly, reaction mixture containing 5 mM MgCl2, 2 mM NADPH, 20 µg/ml pooled human liver S9 fractions (Sekisui Xenotech, KS, USA) in 0.05 M Tris-HCl buffer (pH 7.4) was pre-incubated at 37 °C for 5 min. The reaction was initiated by the addition of 40 µg/ml compound 5 or compound 7 and incubation was continued. Aliquots (100 µl) were collected at 10, 20, and 30 min, and an equal volume of acetonitrile was added. The resulting mixture was analyzed by HPLC equipped with a Waters 2998 Photodiode Array Detector and a Waters 2707 Autosampler using a Senshu-Pak Pegasil ODS-SP-100 column (4.6 Ø × 250 mm) with gradient elution of 50–100% acetonitrile for 30 min at the flow rate of 1 ml/min. Statistical analysis was performed using Prism 5 for Mac OS X, version 5.0 f (GraphPad Software).

O=C(OCc1cc(Cl)cc(Cl)c1)c1ccc([N+](=O)[O-])s1 [compound 5]
metabolism by human liver S9 fractions: slowly metabolized compared with compound 7
